The values that follow come from article PMC4178172, “Molecular Determinants of Agonist Selectivity in Glutamate-Gated Chloride Channels Which Likely Explain the Agonist Selectivity of the Vertebrate Glycine and GABAA-ρ Receptors” (PLoS ONE, 2014).

The target of one assay is T1, GluClα2b (Caenorhabditis elegans, UniProt O17548, R111L).
T1 construct: gene avr-15; homomeric receptor expressed in CHO-K1 cells
T1 sequence (O17548 21-478 R111L): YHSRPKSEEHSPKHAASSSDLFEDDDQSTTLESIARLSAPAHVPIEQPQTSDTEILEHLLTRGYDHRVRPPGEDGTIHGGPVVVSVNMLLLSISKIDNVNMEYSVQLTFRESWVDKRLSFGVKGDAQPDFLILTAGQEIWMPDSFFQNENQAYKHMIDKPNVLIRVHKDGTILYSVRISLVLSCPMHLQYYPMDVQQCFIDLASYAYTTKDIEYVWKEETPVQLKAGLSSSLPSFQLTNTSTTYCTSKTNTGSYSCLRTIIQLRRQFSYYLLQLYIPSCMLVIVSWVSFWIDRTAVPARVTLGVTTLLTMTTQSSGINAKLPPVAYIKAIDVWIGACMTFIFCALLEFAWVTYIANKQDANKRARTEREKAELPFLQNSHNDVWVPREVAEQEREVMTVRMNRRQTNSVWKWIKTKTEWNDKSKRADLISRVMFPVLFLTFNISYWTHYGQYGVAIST
The experiment in a line: whole-cell patch clamp, […] glutamate. The format is cell-based.

In the next assay the target is T2, GluClAc2 (Aplysia californica, UniProt C7DLK0, Y161A).
T2 construct: homomeric receptor expressed in CHO-K1 cells
T2 sequence (C7DLK0 32-429 Y161A): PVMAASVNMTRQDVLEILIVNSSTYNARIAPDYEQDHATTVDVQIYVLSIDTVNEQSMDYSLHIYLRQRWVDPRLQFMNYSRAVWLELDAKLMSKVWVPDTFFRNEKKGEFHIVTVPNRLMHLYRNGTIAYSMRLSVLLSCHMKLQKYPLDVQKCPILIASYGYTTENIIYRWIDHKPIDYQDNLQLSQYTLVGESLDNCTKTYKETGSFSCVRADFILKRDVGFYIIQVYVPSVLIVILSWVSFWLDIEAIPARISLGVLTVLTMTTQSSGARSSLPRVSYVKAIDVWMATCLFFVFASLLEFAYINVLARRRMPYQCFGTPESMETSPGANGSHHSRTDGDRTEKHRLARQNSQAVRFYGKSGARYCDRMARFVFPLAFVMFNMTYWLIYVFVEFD
The experiment in a line: whole-cell patch clamp, […] glutamate. It is filed as cell-based. In general terms: In patch-clamp work, channel activity is measured electrically.

Turning to `N[C@@H](CCC(=O)O)C(=O)O` [glutamate], at GluClα2b, the “whole-cell patch clamp, 1-100 mM glutamate” value is “this mutation did not impede a robust response to glutamate at higher concentrations”. On GluClAc2, the “whole-cell patch clamp, 1 mM glutamate” value was “its mutation to an alanine failed to cause any noticeable change in the response to glutamate”.
